ChEMBL document CHEMBL5380820, “Design and Discovery of Novel Cyclic Peptides as EDPs-EBP Interaction Inhibitors for the Treatment of Liver Fibrosis” (J Med Chem, 2023)
Calls of active or inactive are those of the source. The calls are words filed in the database; no cut-off is given here. Where a SMILES comes first, the peptide text is derived from it. Bridges are numbered along the chain shown (N, C = ends).

How the values were obtained:
LX-2 [1] = experiment: Antifibrotic activity against TGF-beta induced human LX2 cells assessed as inhibition of collagen I expression by measuring fluorescence intensity relative to control; format: functional
[2] = Half life in Sprague-Dawley rat plasma at 0.6 mg/kg, sc by HPLC-MS/MS analysis; format: ADME, organism-based
LX-2 [3] = experiment: Antifibrotic activity against TGF-beta induced human LX2 cells assessed as reduction of alpha-SMA expression measured at 10 uM for 24 hrs by measuring fluorescence intensity relative to control; format: functional; set-up: scale not given: the % may be the effect or the level left
LX-2 [4] = experiment: Antifibrotic activity against TGF-beta induced human LX2 cells assessed as reduction of alpha-SMA expression derived peptide measured by Western blotting analysis; format: functional, cell-based; details: dose 0.01-100 µmol/L
Mus musculus [5] = experiment: Antifibrotic activity in CCl4-induced C57BL/6 mouse model of liver fibrosis assessed as reduction in serum ALT level treated at 150 ug/kg, ip daily for 3 weeks; format: functional, organism-based; details: dose 150.0 µg/kg
Mus musculus [6] = experiment: Antifibrotic activity in CCl4-induced C57BL/6 mouse model of liver fibrosis assessed as reduction in alpha-SMA level treated at 150 ug/kg, ip daily for 3 weeks by Western blo analysis; format: functional, organism-based; details: dose 150.0 µg/kg
LX-2 [7] = experiment: Antifibrotic activity against TGF-beta induced human LX2 cells assessed as reduction of alpha-SMA expression measured at 10 uM for 24 hrs by measuring fluorescence intensity; format: functional, cell-based
Mus musculus [8] = experiment: Antifibrotic activity in CCl4-induced C57BL/6 mouse model of liver fibrosis assessed as reduction in serum AST level treated at 150 ug/kg, ip daily for 3 weeks; format: functional, organism-based; details: dose 150.0 µg/kg
[9] = Tmax in Sprague-Dawley rat plasma at 0.6 mg/kg, sc by HPLC-MS/MS analysis; format: ADME, organism-based
LX2 [10] = experiment: Inhibition of elastin receptor complex elastin binding protein subunit in human LX2 cells assessed as inhibition of EDP induced AMPK phosphorylation treated at 10 uM for 24 hrs by Western blot analysis; format: cell-based
LX-2 [11] = experiment: Antifibrotic activity against TGF-beta induced human LX2 cells assessed as inhibition of neuraminidase activity using NA fluorogenic substrate by measuring fluorescence intensity relative to control; format: functional
[12] = Stability in mouse serum measured at 0 to 48 hrs by RP-HPLC-MS analysis; format: ADME, cell-free; details: time 0-48 hrs
LX-2 [13] = experiment: Antifibrotic activity against TGF-beta induced human LX2 cells assessed as inhibition of alpha-SMA expression by measuring fluorescence intensity relative to control; format: functional
LX-2 [14] = experiment: Antifibrotic activity against TGF-beta induced human LX2 cells assessed as reduction of collagen I expression measured at 10 uM for 24 hrs by measuring fluorescence intensity; format: functional, cell-based
Mus musculus [15] = experiment: Antifibrotic activity in CCl4-induced C57BL/6 mouse model of liver fibrosis assessed as reduction of collagen deposition in liver treated at 150 ug/kg, ip daily for 3 weeks fasted for 9 hrs after last dose and sacrificed after 8 hrs of fasting by hematoxylin and eosin staining analysis; format: functional, organism-based; details: dose 150.0 µg/kg, time 3.033 weeks
LX2 [16] = experiment: Inhibition of elastin receptor complex elastin binding protein subunit in human LX2 cells assessed as inhibition of EDP induced ERK phosphorylation treated at 10 uM for 24 hrs by Western blot analysis; format: cell-based
LX2 [17] = experiment: Inhibition of elastin receptor complex elastin binding protein subunit in human LX2 cells assessed as inhibition of EDP induced PI3K phosphorylation treated at 10 uM for 24 hrs by Western blot analysis; format: cell-based
LX-2 [18] = experiment: Antifibrotic activity against TGF-beta induced human LX2 cells assessed as reduction of collagen I expression measured at 10 uM for 24 hrs by measuring fluorescence intensity relative to control; format: functional; set-up: scale not given: the % may be the effect or the level left
LX-2 [19] = experiment: Antiproliferative activity against TGF-beta induced human LX2 cells assessed as decrease in cell proliferation at 10 uM for 24 hrs by BeyoClick EdU cells proliferation kit with Alex Fluor 488 and DAPI staining analysis; format: functional, cell-based
LX-2 [20] = experiment: Inhibition of cell migration in human LX2 cells assessed as decreased cell number in wound area measured at 0 to 24 hrs by wound healing assay; format: functional, cell-based; details: time 0-24 hrs
[21] = Tmax in Sprague-Dawley rat plasma at 0.1 mg/kg, sc by HPLC-MS/MS analysis; format: ADME, organism-based
Mus musculus [22] = experiment: Antifibrotic activity in CCl4-induced C57BL/6 mouse model of liver fibrosis assessed as decrease of hydroxyproline content in liver treated at 150 ug/kg ip daily for 3 weeks fasted for 9 hrs after last dose and sacrificed after 8 hrs of fasting by […] analysis; format: functional, organism-based; details: dose 150.0 µg/kg, time 3.033 weeks
[23] = Half life in Sprague-Dawley rat plasma at 0.1 mg/kg, sc by HPLC-MS/MS analysis; format: ADME, organism-based
[24] = Stability in mouse serum assessed as half life measured by RP-HPLC-MS analysis; format: ADME, cell-free

Compound	inhibition (INH) (LX-2 [1]) [%]	Activity (LX-2 [3]) [%]	Activity (LX-2 [4])	Activity (Mus musculus [5])	Activity (Mus musculus [6])	Activity (Mus musculus [8])	inhibition (LX2 [10])	inhibition (INH) (LX-2 [11]) [%]	inhibition (INH) (LX-2 [13]) [%]	Activity (Mus musculus [15])	inhibition (LX2 [16])	inhibition (LX2 [17])	Activity (LX-2 [18]) [%]	Activity (LX-2 [19])	other results
H-VVGSPSAQDEASPL-NH2	22.5	~50	Dose-Dependent Effect	Active	Active	Active	Active	37	27.5	Active	Active	Active	~50	Active	half-life [2]: 4.8 min; Activity (LX-2 [7]): Active; Tmax [9]: 4.8 min; Stability [12]: 40%; Activity (LX-2 [14]): Active
CC(C)C[C@@H]1NC(=O)[C@@H]2CCCN2C(=O)[C@H](CO)NC(=O)[C@H](C)NC(=O)[C@H](CCC(=O)O)NC(=O)[C@H](CC(=O)O)NC(=O)[C@H](CCC(N)=O)NC(=O)[C@H](C)NC(=O)[C@H](CO)NC(=O)[C@@H]2CCCN2C(=O)[C@H](CO)NC(=O)CNC(=O)[C@H](C(C)C)NC(=O)[C@H](C(C)C)NC1=O (cyclo(AQDEASPLVVGSPS))	39.7	~50			Active		Active	79.8	45.3	Active	Active	Active	~50	Active	inhibition (LX-2 [20]): Active; Tmax [21]: 10.2 min; Activity (Mus musculus [22]): Active; half-life [23]: 19.8 min; half-life [24]: > 36 h
CC(C)[C@@H]1NC(=O)CNC(=O)[C@@H]2CCCN2C(=O)[C@H](CO)NC(=O)[C@H](C)NC(=O)[C@H](CCC(=O)O)NC(=O)[C@H](CC(=O)O)NC(=O)[C@H](CCC(N)=O)NC(=O)[C@H](C)NC(=O)[C@H](Cc2ccccc2)NC(=O)[C@@H]2CCCN2C(=O)[C@H](CO)NC(=O)CNC(=O)[C@H](C(C)C)NC1=O (cyclo(AQDEASPGVVGSPF))			inactive	Active		Active		40.9	0.1						inhibition (LX-2 [1]): inactive
CC(C)C[C@H](NC(=O)[C@@H]1CCCN1C(=O)[C@H](CO)NC(=O)[C@H](C)NC(=O)[C@@H]1CCC(=O)N[C@@H](C(C)C)C(=O)N[C@@H](C(C)C)C(=O)NCC(=O)N[C@@H](CO)C(=O)N2CCC[C@H]2C(=O)N[C@@H](CO)C(=O)N[C@@H](C)C(=O)N[C@@H](CCC(N)=O)C(=O)N[C@@H](CC(=O)O)C(=O)N1)C(=O)O (VVGSPSAQDEASPL-OH; lactam N-10)	33.5	~50					Active	68	34.8		Active	Active	~50	Active	
